The results in this text go back to US8242150B2, “Triazole derivatives for treating alzheimer'S disease and related conditions” (Merck Sharp & Dohme Corp., priority 2007, dated 2012).

Each structure is given as a SMILES string. “And” between values parts separate entries of the source, which are not always exact repeats. Equal entries are not always repeated. Structures can show the parent of a compound that is named as a salt.

The test system of one experiment is Aβ(1-42). Kind of experiment: Cell-based γ-secretase assay, Aβ(42) detection. Set-up: species or system Human. Conditions: Homo sapiens, SH-SY5Y, SH-SY5Y cells overexpressing SPA4CT; two values in a cell = individual enantiomers; read-out: Aβ42 IC50. How it is done: Cell-Based γ-Secretase Assay
Human SH-SY5Y neuroblastoma cells overexpressing the direct γ-secretase substrate SPA4CT were induced with sodium butyrate (10 mM) for 4 hours prior to plating. Cells were plated at 35,000 cells/well/100 μl in 96-well plates in phenol red-free MEM/10% FBS, 50 mM HEPES, 1% Glutamine and incubated for 2 hrs at 37° C., 5% CO2.
Compounds for testing were diluted into Me2SO to give a ten point dose-response curve. Typically 10 μl of these diluted compounds in Me2SO were further diluted into 182 μl dilution buffer (phenol red-free MEM/10% FBS, 50 mM HEPES, 1% Glutamine) and 10 μl of each dilution was added to the cells in 96-well plates (yielding a final Me2SO concentration of 0.5%). Appropriate vehicle and inhibitor controls were used to determine the window of the assay.
After incubation overnight at 37° C., 5% CO2, 25 μl and 50 μl media were transferred into a standard Meso avidin-coated 96-well plate for detection of Aβ(40) and Aβ(42) peptides, respectively. 25 μl Meso Assay buffer (PBS, 2% BSA, 0.2% Tween-20) was added to the Aβ(40) wells followed by the addition of 25 μl of the respective antibody premixes to the wells:
Aβ(42) premix: 1 μg/ml ruthenylated G2-11 antibody, 4 μg/ml; and biotinylated 4G8 antibody diluted in Origen buffer
(Biotinylated 4G8 antibody supplied by Signet Pathology Ltd; G2-10 and G2-11 antibodies supplied by Chemicon)
After overnight incubation of the assay plates on a shaker at 4° C., the Meso Scale Sector 6000 Imager was calibrated according to the manufacturer's instructions. After washing the plates 3 times with 150 μl of PBS per well, 150 μl Meso Scale Discovery read buffer was added to each well and the plates were read on the Sector 6000 Imager according to the manufacturer's instructions.
LD50 and IC50 values for inhibition of Aβ(40) and Aβ(42) were calculated by nonlinear regression fit analysis using the appropriate software (eg. Excel fit). The total signal and the background were defined by the corresponding Me2SO and inhibitor controls.
As a reminder, the IC50 is the concentration at which inhibition is half-maximal. As to `COc1cc(-c2cn(CC(=O)N(c3ccccc3)C3CCCCC3)nn2)ccc1-n1cnc(C)c1` [Example 1, N-cyclohexyl-2-{4-[3-methoxy-4-(4-methyl-imidazol-1-yl)-phenyl]-1,2,3-triazol-1-yl}-N-phenyl-acetamide], the IC50 was determined as 616 nM.
Take `COc1cc(-c2cn(CSc3ccccc3)nn2)ccc1-n1cnc(C)c1` [Example 4, 4-[3-Methoxy-4-(4-methyl-imidazol-1-yl)-phenyl]-1-phenylsulfanylmethyl-1H-[1,2,3]triazole trifluoroacetate salt]: the IC50 was 529 nM.
As for `COc1cc(-c2cn(C(F)(F)c3ccc(C(F)F)cc3)nn2)ccc1-n1cnc(C)c1` [Example 7, 1-[(4-Difluoromethyl-phenyl)-difluoro-methyl]-4-[3-methoxy-4-(4-methyl-imidazol-1-yl)-phenyl]-1H-[1,2,3]triazole trifluoracetate salt], the IC50 was found to be 2240 nM.
On to `COc1cc(-c2cn(CC(=O)N(CC(F)(F)F)c3ccc(F)c(Cl)c3)nn2)ccc1-n1cnc(C)c1` [Example 12, N-(3-chloro-4-fluorophenyl)-2-{4-[3-methoxy-4-(4-methyl-1H-imidazol-1-yl)phenyl]-1H-1,2,3-triazol-1-yl}-N-(2,2,2-trifluoroethyl)acetamide trifluoroacetate salt], for which the half-inhibitory concentration (IC50) came to 84 nM.
As to `COc1cc(-c2cn(CC(=O)N3CCCC4CCCCC43)nn2)ccc1-n1cnc(C)c1` (stereo not shown) [Example 8, 2-{4-[3-Methoxy-4-(4-methyl-imidazol-1-yl)-phenyl]-[1,2,3]triazol-1-yl}-1-(octahydro-quinolin-1-yl)-ethanone trifluoroacetate salt], the IC50 turned out to be 1070 nM.
Turning to `COc1cc(-c2cn(C(C)c3ccccc3)nn2)ccc1-n1cnc(C)c1` (stereo not shown) [Example 5, 4-[3-Methoxy-4-(4-methyl-imidazol-1-yl)-phenyl]-1-(1-phenyl-ethyl)-1H-[1,2,3]triazole trifluoroacetate salt], the half-maximal inhibitory concentration (IC50) was 2660 nM.
`COc1cc(-c2cn(C(F)(F)C(=O)NCc3ccc(F)cc3)nn2)ccc1-n1cnc(C)c1` [Example 9, 2,2-Difluoro-N-(4-fluoro-benzyl)-2-{4-[3-methoxy-4-(4-methyl-imidazol-1-yl)-phenyl]-[1,2,3]triazol-1-yl}-acetamide trifluoroacetate salt]: the IC50 amounted to 933 nM.

The experiment is the same for the next values; noted with them: Homo sapiens, SH-SY5Y, read-out: Aβ42 IC50.
Consider `COc1cc(-c2cn(Cc3ccc(C(C)(C)C)cc3)nn2)ccc1-n1cnc(C)c1` [Example 3, 1-(4-tert-butyl-benzyl)-4-[3-methoxy-4-(4-methyl-imidazole-1-yl)-phenyl]-1H-[1,2,3]triazole trifluoroacetate salt], for which the IC50 amounted to 310 nM.
On the same count and under the same terms, the value for `COc1cc(-c2cn(Cc3ccc(-c4nc5ccccc5o4)cc3)nn2)ccc1-n1cnc(C)c1` [Example 6, 2-(4-{4-[3-Methoxy-4-(4-methyl-imidazol-1-yl)-phenyl]-[1,2,3]triazol-1-ylmethyl}-phenyl)-benzooxazole trifluoroacetate salt] was 177 nM.

Staying with this experiment, now noted: SH-SY5Y cells overexpressing SPA4CT; two values in a cell = individual enantiomers; read-out: Aβ42 IC50.
Consider `COc1cc(-c2cn(C3CCc4ccccc4NC3=O)nn2)ccc1-n1cnc(C)c1` (racemic) [Example 2, (R) and (S)-3-{4-[3-methoxy-4-(4-methyl-imidazol-1-yl)-phenyl]-1,2,3-triazol-1-yl}-1,3,4,5-tetrahydro-1-benzazepin-2-one], for which the IC50 was 386 nM and 1330 nM.
